A short description of data set [1]: clinical. Conditions: human, in vivo, 1200 mg.
For data set [2] the following is noted: in vivo; cited from earlier work.
Data set [3] is described as follows: clinical. The format is in vivo, human. An excerpt: In another study drug interaction potential for combination drugs was examined.

Counter-ions that a name gives are not always drawn.

In general, AUC(0-t) refers to the area under the concentration-time curve up to a stated or last time point. A word on the AUC(0-inf): it is the area under the concentration-time curve extrapolated to infinity. Usually clearance stands for a measure of how efficiently the substance is removed, as volume per time. As a reminder, the Cmax is the peak of the concentration-time curve. What is called half-life is the time needed for the level to fall by half in the phase considered. A word on the Tmax: it is the time at which the peak concentration occurs. As to `COc1ccccc1OCC(O)CO` (centres unmarked) [Guaifenesin, 3-(2-methoxyphenoxy)-1,2-propanediol], the AUC(0-t) in “clinical [1]” (Guaifenesin AUC0-t) worked out at 8350 ng·h/mL; in “clinical [3]” (human, in vivo, 1200 mg, Guaifenesin AUC0-t) it was 7060 ng·h/mL. For the same molecule, the AUC(0-inf) came out at 8830 ng·h/mL in the data set “clinical [1]” (Guaifenesin AUCinf) and 7280 ng·h/mL in “clinical [3]” (human, in vivo, 1200 mg, Guaifenesin AUCinf). The clearance is 2270 mL/min in “clinical [1]” (Guaifenesin Clearance) and 2750 mL/min in the data set “clinical [3]” (human, in vivo, 1200 mg, Guaifenesin Clearance). Besides, the Cmax in “clinical [1]” (Guaifenesin Cmax) was determined as 1920 ng/mL; in “clinical [3]” (human, in vivo, 1200 mg, Guaifenesin Cmax), 1700 ng/mL. The half-life is 3.03 h in “clinical [1]” (Guaifenesin Half life) and 2.82 h in “clinical [3]” (human, in vivo, 1200 mg, Guaifenesin Half-life). Besides, the Tmax in “clinical [1]” (Guaifenesin Tmax) stood at 0.75 h; in “clinical [3]” (human, in vivo, 1200 mg, Guaifenesin Tmax), 0.75 h. The typical plasma half-life result in data set [2] is “approximately one”.
Regarding `CN[C@@H](C)[C@@H](O)c1ccccc1` [Pseudoephedrine, Pseudoephedrine hydrochloride], the mean elimination half-life in data set [2] was 4 to 6 h. Moreover, the AUC(0-t) in the data set “clinical [3]” (human, in vivo, po, 120 mg, Pseudoephedrine AUC0-t, mean, Treatment B: 120 mg pseudoephedrine HCl alone (Sudafed 12 Hour), overnight fast) is 4020 ng·h/mL; in the data set “clinical [3]” (human, in vivo, po, 120 mg, Pseudoephedrine AUC0-t, mean, Treatment C: 120 mg pseudoephedrine HCl along with 1200 mg guaifenesin (Sudafed 12 Hour + Mucinex), overnight fast), 3920 ng·h/mL; in “clinical [3]” (human, in vivo, po, 120 mg, Pseudoephedrine AUC0-t, median, Treatment B: 120 mg pseudoephedrine HCl alone (Sudafed 12 Hour), overnight fast), 3820 ng·h/mL; in the data set “clinical [3]” (human, in vivo, po, 120 mg, Pseudoephedrine AUC0-t, median, Treatment C: 120 mg pseudoephedrine HCl along with 1200 mg guaifenesin (Sudafed 12 Hour + Mucinex), overnight fast), 3930 ng·h/mL. Also, the AUC(0-inf) in “clinical [3]” (human, in vivo, po, 120 mg, Pseudoephedrine AUCinf, mean, Treatment B: 120 mg pseudoephedrine HCl alone (Sudafed 12 Hour), overnight fast) was 4500 ng·h/mL; in the data set “clinical [3]” (human, in vivo, po, 120 mg, Pseudoephedrine AUCinf, mean, Treatment C: 120 mg pseudoephedrine HCl along with 1200 mg guaifenesin (Sudafed 12 Hour + Mucinex), overnight fast) it was 4400 ng·h/mL; in the data set “clinical [3]” (human, in vivo, po, 120 mg, Pseudoephedrine AUCinf, median, Treatment B: 120 mg pseudoephedrine HCl alone (Sudafed 12 Hour), overnight fast) it was 4430 ng·h/mL; in the data set “clinical [3]” (human, in vivo, po, 120 mg, Pseudoephedrine AUCinf, median, Treatment C: 120 mg pseudoephedrine HCl along with 1200 mg guaifenesin (Sudafed 12 Hour + Mucinex), overnight fast), 4250 ng·h/mL. Besides, the Cmax in “clinical [3]” (human, in vivo, po, 120 mg, Pseudoephedrine Cmax, mean, Treatment B: 120 mg pseudoephedrine HCl alone (Sudafed 12 Hour), overnight fast) worked out at 296 ng/mL; in “clinical [3]” (human, in vivo, po, 120 mg, Pseudoephedrine Cmax, mean, Treatment C: 120 mg pseudoephedrine HCl along with 1200 mg guaifenesin (Sudafed 12 Hour + Mucinex), overnight fast) it was 289 ng/mL; in “clinical [3]” (human, in vivo, po, 120 mg, Pseudoephedrine Cmax, median, Treatment B: 120 mg pseudoephedrine HCl alone (Sudafed 12 Hour), overnight fast), 298 ng/mL; in “clinical [3]” (human, in vivo, po, 120 mg, Pseudoephedrine Cmax, median, Treatment C: 120 mg pseudoephedrine HCl along with 1200 mg guaifenesin (Sudafed 12 Hour + Mucinex), overnight fast), 286 ng/mL. Moreover, the half-life was 6.05 h in the data set “clinical [3]” (human, in vivo, po, 120 mg, Pseudoephedrine Half-life, mean, Treatment B: 120 mg pseudoephedrine HCl alone (Sudafed 12 Hour), overnight fast); 6.04 h in “clinical [3]” (human, in vivo, po, 120 mg, Pseudoephedrine Half-life, mean, Treatment C: 120 mg pseudoephedrine HCl along with 1200 mg guaifenesin (Sudafed 12 Hour + Mucinex), overnight fast); 5.81 h in the data set “clinical [3]” (human, in vivo, po, 120 mg, Pseudoephedrine Half-life, median, Treatment B: 120 mg pseudoephedrine HCl alone (Sudafed 12 Hour), overnight fast); 5.63 h in “clinical [3]” (human, in vivo, po, 120 mg, Pseudoephedrine Half-life, median, Treatment C: 120 mg pseudoephedrine HCl along with 1200 mg guaifenesin (Sudafed 12 Hour + Mucinex), overnight fast). The Tmax was found to be 6.17 h in the data set “clinical [3]” (human, in vivo, po, 120 mg, Pseudoephedrine Tmax, mean, Treatment B: 120 mg pseudoephedrine HCl alone (Sudafed 12 Hour), overnight fast); 5.75 h in “clinical [3]” (human, in vivo, po, 120 mg, Pseudoephedrine Tmax, mean, Treatment C: 120 mg pseudoephedrine HCl along with 1200 mg guaifenesin (Sudafed 12 Hour + Mucinex), overnight fast); 6 h in “clinical [3]” (human, in vivo, po, 120 mg, Pseudoephedrine Tmax, median, Treatment B: 120 mg pseudoephedrine HCl alone (Sudafed 12 Hour), overnight fast); 6 h in “clinical [3]” (human, in vivo, po, 120 mg, Pseudoephedrine Tmax, median, Treatment C: 120 mg pseudoephedrine HCl along with 1200 mg guaifenesin (Sudafed 12 Hour + Mucinex), overnight fast). Also, the “Pseudoephedrine Clearance” value in “clinical [3]” (mean, Treatment B: 120 mg pseudoephedrine HCl alone (Sudafed 12 Hour), overnight fast) came out at 23.66 L/h; in the data set “clinical [3]” (mean, Treatment C: 120 mg pseudoephedrine HCl along with 1200 mg guaifenesin (Sudafed 12 Hour + Mucinex), overnight fast) it was 24.30 L/h; in the data set “clinical [3]” (median, Treatment B: 120 mg pseudoephedrine HCl alone (Sudafed 12 Hour), overnight fast), 22.20 L/h; in “clinical [3]” (median, Treatment C: 120 mg pseudoephedrine HCl along with 1200 mg guaifenesin (Sudafed 12 Hour + Mucinex), overnight fast) it was 23.16 L/h.

Values taken from patent publication US8012504B2 (priority 2000, dated 2011).
